pIC50: −log10 of the molar value.
Biological target: recombinant human tau 4R2N (Homo sapiens (Human), UniProt P10636)
Assay: AlphaLisa Assay (ALA), primary screen for inhibition of tau oligomer formation
Format: biochemical
Settings: tau target 300 nM, Tris-HCl pH 7.4, 4 hours room temperature, compound 0.098 uM-50 uM
Excerpt: Bacterial recombinant human tau 4R2N (the largest isoform of tau in the central nervous system, 441 amino acids in length, Seq ID 1) constructs with either 6×-His or StrepII N-terminal epitope tags were purified from bacterial lysate using denaturing conditions to prepare tau in its monomeric form.
ALA Assay: AlphaLisa Assay (ALA) was used as a primary screen for identifying compounds that inhibit tau oligomer formation. It is a bead based assay that only gives signal when the beads are in close proximity to each other. When the tau monomer (target) is incubated it forms higher order aggregates (dimer, trimer, tetramer, etc) so that when the donor and acceptor beads bind to the epitope tags of tau they are in close proximity and generate signal.
Tau target (equal mixture of each construct at 300 nM) was prepared in buffer (Tris-HCl pH 7.4) and was incubated in 96-well plates at room temperature for 4 hours with vehicle control (DMSO) and a dose range of a compound of the disclosure (0.098 uM-50 uM). AlphaLisa acceptor beads & donor beads with ligands to the epitope tags (Perkin Elmer) were diluted (final 20 ug/mL per bead) in bead buffer (25 mM HEPES pH 7.4, 100 mM NaCl, 0.1% Tween-20), added to the wells and incubated 1 hour at room temperature. The positive control (non-incubated target) & blank (no tau) were prepared and mixed with beads in bead buffer and the plate was read immediately using the EnVision plate reader (Perkin Elmer).

Chain of recombinant human tau 4R2N (P10636 other isoform, or with tags, fused parts or gaps): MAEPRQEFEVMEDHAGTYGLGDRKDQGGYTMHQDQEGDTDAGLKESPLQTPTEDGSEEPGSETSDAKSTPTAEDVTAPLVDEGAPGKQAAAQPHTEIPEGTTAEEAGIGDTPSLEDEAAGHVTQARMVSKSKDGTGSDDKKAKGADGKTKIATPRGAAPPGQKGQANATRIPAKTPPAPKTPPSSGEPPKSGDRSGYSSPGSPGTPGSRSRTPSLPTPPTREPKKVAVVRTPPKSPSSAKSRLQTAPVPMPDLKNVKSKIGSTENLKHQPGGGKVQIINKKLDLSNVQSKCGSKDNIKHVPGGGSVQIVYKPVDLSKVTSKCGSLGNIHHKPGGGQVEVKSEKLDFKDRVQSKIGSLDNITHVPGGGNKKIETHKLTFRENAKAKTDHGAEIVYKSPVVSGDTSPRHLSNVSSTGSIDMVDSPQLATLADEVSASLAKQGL

| Structure (SMILES) | pIC50 |
| --- | --- |
| CC(=O)CCc1oc2ccc(Br)cc2c1CCC(C)C [Example 9, 4-[5-Bromo-3-(3-methyl-butyl)-benzofuran-2-yl]-butan-2-one] | < 5.00 |
| COc1cc(-c2ccc3oc(CCC(C)=O)c(-c4ccc(Cl)s4)c3c2)ccn1 [Example 19, 4-(3-(5-chlorothiophen-2-yl)-5-(2-methoxypyridin-4-yl)benzofuran-2-yl)butan-2-one] | 4.68 |
| Cc1ccc(-c2c(CCC(=O)O)oc3ccc(Br)cc23)o1 [Example 12, 3-[5-Bromo-3-(5-methyl-furan-2-yl)-benzofuran-2-yl]-propionic acid] | 5.22 |
| CC(=O)CCc1oc2ccc(-c3cccs3)cc2c1-c1ccc(C)o1 [Example 8, 4-(3-(5-Methylfuran-2-yl)-5-(thiophen-2-yl)benzofuran-2-yl)butan-2-one] | 5.88 |
| CC(=O)CCc1oc2ccc(-c3ccncc3)cc2c1-c1ccc(Cl)s1 [Example 18, 4-(3-(5-Chlorothiophen-2-yl)-5-(pyridin-4-yl)benzofuran-2-yl)butan-2-one] | 5.12 |
| Cc1ccc(-c2c(CCC(=O)N3CCC(O)CC3)oc3ccc(Br)cc23)o1 [Example 13, 3-[5-Bromo-3-(5-methyl-furan-2-yl)-benzofuran-2-yl]-1-(4-hydroxy-piperidin-1-yl)-propan-1-one] | 5.24 |

The remaining lines, values ahead:

| pIC50 | Structure (SMILES) |
| --- | --- |
| < 5.00 | CC(=O)CCc1oc2ccc(Br)cc2c1CCc1ccc(C)cc1 [Example 26, 4-(5-Bromo-3-(2-p-tolylethyl)benzofuran-2-yl)butan-2-one] |
| 5.61 | COc1ccc(-c2ccc3c(-c4ccc(C)o4)c(CCC(C)=O)oc3c2)cn1 [Example 28, 4-(6-(6-Methoxypyridin-3-yl)-3-(5-methylfuran-2-yl)benzofuran-2-yl)butan-2-one] |
| 5.93 | CC(=O)CCc1oc2cc(Br)ccc2c1-c1ccc(C)o1 [Example 21, 4-(6-Bromo-3-(5-methylfuran-2-yl)benzofuran-2-yl)butan-2-one] |
| 4.81 | CC(=O)CCc1oc2ccc(-c3ccc(Cl)nc3)cc2c1-c1ccc(Cl)s1 [Example 20, 4-(5-(6-Chloropyridin-3-yl)-3-(5-chlorothiophen-2-yl)benzofuran-2-yl)butan-2-one] |
| 5.47 | CC(=O)CCc1oc2cc(-c3ccncc3)ccc2c1-c1ccc(C)o1 [Example 22, 4-(3-(5-Methylfuran-2-yl)-6-(pyridin-4-yl)benzofuran-2-yl)butan-2-one] |
